Measured values published in patent US20070167452A1, “Therapeutic amide derivatives” (PFIZER, INC., priority 2004, published 2007).

Legend:
NR2B receptor = molecular target: T1, NR2B receptor (Rattus norvegicus, UniProt P35439+Q00960); assay: NR2B Binding Assay; conditions: forebrain P2 membranes of male CD rats; 5 nM [3H] NR2B ligand
T1 construct: Membranes were prepared by homogenization of forebrain of male CD rats; from tissue; host or cells: forebrain of male CD rats (P2 membrane)
Description: The activity of the cycloalkylene amide compounds of the present invention, as NR2B antagonists, is determined by their ability to inhibit the binding of NR2B subunit at its receptor sites employing radioactive ligands.
The NR^2B antagonist activity of the cycloalkylene amide compounds is evaluated by using the standard assay procedure described in, for example, J. Pharmacol., 331, pp 117-126, 1997. This method essentially involves determining the concentration of the individual compound required to reduce the amount of radiolabelled NR2B ligands by 50% at their receptor sites, thereby affording characteristic IC50 values for each compound tested. More specifically, the assay is carried out as follows.
Membranes were prepared by homogenization of forebrain of male CD rats weighing between 170˜190 g by using glass-Teflon homogenizer in 0.32 M sucrose at 4° C. The crude nuclear pellet was removed by centrifugation at 1000×g for 10 min, and the supernatant centrifuged at 17000×g for 25 min. The resulting pellet was resuspended in 5 mM Tris acetate pH 7.4 at 4° C. for 10 min to lyse cellular particles and again centrifuged at 17000×g. The resulting pellet (P2 membrane) was washed twice in Tris acetate, resuspended at 5.5 mg protein/ml and stored at −20° C. until use. All the manipulation was done on ice, and stock solution and equipment were kept on ice at all time.
For the saturation assay, receptor saturation was determined by incubating [^3H]-1-[(1S*,2S*)-2-hydroxy-2-(4-hydroxyphenyl)-1-methylethyl]-4-phenylpiperidin-4-ol and 50 μg protein of P2 membrane for 60 minutes at room temperature in a final 100 μl of incubation buffer (50 mM Tris HCl, pH7.4). Total and non-specific bindings (in the presence of 10 μM of unlabeled 1-[(1S*,2S*)-2-hydroxy-2-(4-hydroxyphenyl)-1-methylethyl]-4-phenylpiperidin-4-ol) were determined in a range of [^3H]-1-[(1S*,2S*)-2-hydroxy-2-(4-hydroxyphenyl)-1-methylethyl]-4-phenylpiperidin-4-ol concentrations (0.625 nM to 60 nM).
For the competition assay, test compounds were incubated in duplicate with 5 nM [^3H]-1-[(1S*,2S*)-2-hydroxy-2-(4-hydroxyphenyl)-1-methylethyl]-4-phenylpiperidin-4-ol and 50 μg protein of P2 membrane for 60 minutes at room temperature in a final 100 μl of 50 mM Tris HCl buffer (pH7.4). Nonspecific binding was determined by 10 μM of unlabeled 1-[(1S*,2S*)-2-hydroxy-2-(4-hydroxyphenyl)-1-methylethyl]-4-phenylpiperidin-4-ol (25 μl). The saturation derived KD gained in saturation assay was used for all Ki calculations.
All incubations were terminated by rapid vacuum filtration over 0.2% polyethyleneimine soaked Whatman GF/B glass fibre filter paper using a SKATRON cell harvester followed by three washes with ice-cold filtration buffer (5 mM Tris HCl, pH 7.4.). Receptor-bound radioactivity was quantified by liquid scintillation counting using Packard LS counter. Competition assays were performed by counting Wallac GF/B filters on Betaplate scintillation counter (Wallac).

Human HERG = Human HERG (Homo sapiens, UniProt Q12809); assay: Human Dofetilide Binding Assay
Sequence of Human HERG (Q12809 whole entry): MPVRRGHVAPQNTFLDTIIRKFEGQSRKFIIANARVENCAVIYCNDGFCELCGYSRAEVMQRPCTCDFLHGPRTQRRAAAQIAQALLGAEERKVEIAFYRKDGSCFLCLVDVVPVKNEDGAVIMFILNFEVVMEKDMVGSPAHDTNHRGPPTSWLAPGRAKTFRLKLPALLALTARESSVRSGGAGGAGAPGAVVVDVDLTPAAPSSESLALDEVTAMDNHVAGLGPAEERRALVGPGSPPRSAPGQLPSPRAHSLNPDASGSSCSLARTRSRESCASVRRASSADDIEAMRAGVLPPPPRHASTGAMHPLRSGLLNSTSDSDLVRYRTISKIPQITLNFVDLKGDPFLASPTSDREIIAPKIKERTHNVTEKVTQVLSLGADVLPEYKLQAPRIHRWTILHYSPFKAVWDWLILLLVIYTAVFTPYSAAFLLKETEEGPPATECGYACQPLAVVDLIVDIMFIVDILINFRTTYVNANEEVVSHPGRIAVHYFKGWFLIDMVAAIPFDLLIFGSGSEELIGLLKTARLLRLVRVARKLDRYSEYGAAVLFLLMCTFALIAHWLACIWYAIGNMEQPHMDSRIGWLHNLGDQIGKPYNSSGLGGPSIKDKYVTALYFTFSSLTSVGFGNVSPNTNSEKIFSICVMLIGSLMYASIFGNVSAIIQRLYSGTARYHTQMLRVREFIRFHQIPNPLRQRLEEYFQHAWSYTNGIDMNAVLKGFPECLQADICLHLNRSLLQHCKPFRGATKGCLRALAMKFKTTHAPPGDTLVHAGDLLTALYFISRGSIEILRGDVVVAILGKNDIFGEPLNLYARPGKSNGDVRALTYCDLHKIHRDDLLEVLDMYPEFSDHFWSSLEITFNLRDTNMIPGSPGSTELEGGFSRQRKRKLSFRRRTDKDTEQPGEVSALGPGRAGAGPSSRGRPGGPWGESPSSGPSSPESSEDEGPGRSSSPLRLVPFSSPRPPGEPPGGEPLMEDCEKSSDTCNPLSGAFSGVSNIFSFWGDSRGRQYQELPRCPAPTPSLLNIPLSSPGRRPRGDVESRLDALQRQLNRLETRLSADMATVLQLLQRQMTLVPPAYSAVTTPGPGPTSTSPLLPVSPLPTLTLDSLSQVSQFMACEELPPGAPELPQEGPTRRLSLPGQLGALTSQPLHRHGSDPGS
Description: Human HERG transfected HEK293S cells were prepared and grown in-house. The collected cells were suspended in 50 mM Tris-HCl (pH 7.4 at 4° C.) and homogenized using a hand held Polytron PT 1200 disruptor set at full power for 20 sec on ice. The homogenates were centrifuged at 48,000×g at 4° C. for 20 min. The pellets were then resuspended, homogenized, and centrifuged once more in the same manner. The final pellets were resuspended in an appropriate volume of 50 mM Tris-HCl, 10 mM KCl, 1 mM MgCl2 (pH 7.4 at 4° C.), homogenized, aliquoted and stored at −80° C. until use. An aliquot of membrane fractions was used for protein concentration determination using BCA protein assay kit (PIERCE) and ARVOsx plate reader (Wallac).
Binding assays were conducted in a total volume of 200 μl in 96-well plates. Twenty μl of test compounds were incubated with 20 μl of [^3H]-dofetilide (Amersham, final 5 nM) and 160 μl of membrane homogenate (25 μg protein) for 60 minutes at room temperature. Nonspecific binding was determined by 10 μM dofetilide at the final concentration. Incubation was terminated by rapid vacuum filtration over 0.5% presoaked GF/B Betaplate filter using Skatron cell harvester with 50 mM Tris-HCl, 10 mM KCl, 1 mM MgCl2, pH 7.4 at 4° C. The filters were dried, put into sample bags and filled with Betaplate Scint. Radioactivity bound to filter was counted with Wallac Betaplate counter.

T1 sequence (Q00960 27-1482, other chains not shown): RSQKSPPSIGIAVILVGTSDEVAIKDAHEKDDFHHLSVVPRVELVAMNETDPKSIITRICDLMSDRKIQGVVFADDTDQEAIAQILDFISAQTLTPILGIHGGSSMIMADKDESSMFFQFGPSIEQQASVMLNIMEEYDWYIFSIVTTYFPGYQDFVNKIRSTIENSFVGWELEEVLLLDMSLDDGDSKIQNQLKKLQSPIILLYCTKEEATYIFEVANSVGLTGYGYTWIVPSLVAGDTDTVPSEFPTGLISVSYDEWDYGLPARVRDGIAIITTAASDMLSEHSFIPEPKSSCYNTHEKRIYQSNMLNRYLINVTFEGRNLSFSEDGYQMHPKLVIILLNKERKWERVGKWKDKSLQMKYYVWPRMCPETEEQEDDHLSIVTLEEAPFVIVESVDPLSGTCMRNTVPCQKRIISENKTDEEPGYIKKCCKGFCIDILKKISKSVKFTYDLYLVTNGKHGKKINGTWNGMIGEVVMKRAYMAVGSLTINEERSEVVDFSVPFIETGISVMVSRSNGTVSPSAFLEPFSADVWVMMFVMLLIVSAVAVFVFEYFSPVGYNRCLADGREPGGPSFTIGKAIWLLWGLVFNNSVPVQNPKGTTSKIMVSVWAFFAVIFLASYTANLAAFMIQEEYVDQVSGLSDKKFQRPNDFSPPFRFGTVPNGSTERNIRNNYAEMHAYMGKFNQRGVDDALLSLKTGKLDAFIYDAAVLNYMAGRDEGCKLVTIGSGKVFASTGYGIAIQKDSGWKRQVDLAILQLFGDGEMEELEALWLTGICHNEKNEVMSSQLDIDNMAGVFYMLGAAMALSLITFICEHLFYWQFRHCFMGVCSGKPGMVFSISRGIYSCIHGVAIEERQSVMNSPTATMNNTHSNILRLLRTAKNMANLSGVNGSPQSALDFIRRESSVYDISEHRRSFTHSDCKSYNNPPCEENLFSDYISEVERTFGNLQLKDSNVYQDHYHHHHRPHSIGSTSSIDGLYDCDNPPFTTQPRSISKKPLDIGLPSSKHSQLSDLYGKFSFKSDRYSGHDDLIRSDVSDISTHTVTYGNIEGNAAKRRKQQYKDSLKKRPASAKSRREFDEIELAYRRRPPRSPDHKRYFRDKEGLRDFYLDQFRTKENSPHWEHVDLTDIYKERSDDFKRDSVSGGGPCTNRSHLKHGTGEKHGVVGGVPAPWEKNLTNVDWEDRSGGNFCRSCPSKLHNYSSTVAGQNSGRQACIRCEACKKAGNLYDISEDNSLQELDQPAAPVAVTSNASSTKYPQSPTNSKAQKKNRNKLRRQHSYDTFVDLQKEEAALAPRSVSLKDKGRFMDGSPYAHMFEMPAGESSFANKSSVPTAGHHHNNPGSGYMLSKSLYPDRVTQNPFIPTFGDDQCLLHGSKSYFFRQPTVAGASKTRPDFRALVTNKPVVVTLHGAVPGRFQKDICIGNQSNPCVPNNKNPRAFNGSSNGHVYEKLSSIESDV

SMILES | IC50 (NR2B receptor) [nM] | IC50 (Human HERG) [nM]
O=C(NC[C@]1(O)CC[C@H](Cc2ccc(F)cc2)CC1)c1ccc(O)cc1 [Example 81, N-{[trans-4-(4-Fluorobenzyl)-1-hydroxycyclohexyl]methyl}-4-hydroxybenzamide] | 9.5 | 35700
O=C(NC[C@H]1CC[C@@H](COc2ccccn2)CC1)c1ccc(O)c(F)c1 [Example 89, 3-Fluoro-4-hydroxy-N-({cis-4-[(pyridin-2-yloxy)methyl]cyclohexyl}methyl)benzamide] | 9 | > 100000
O=C(NC[C@]1(O)CC[C@H](Cc2ccccc2)CC1)c1ccc(O)cc1 [Example 68, N-[(trans-4-Benzyl-1-hydroxycyclohexyl)methyl]-4-hydroxybenzamide] | 7.3 | > 100000
O=C(NC[C@]1(O)CC[C@H](COc2ccccc2F)CC1)c1ccc(O)c(F)c1 [Example 65, 3-Fluoro-N-({trans-4-[(2-fluorophenoxy)methyl]-1-hydroxycyclohexyl}methyl)-4-hydroxybenzamide] | 10 | > 100000
O=C(NC[C@H]1CC[C@@H](COc2ccccc2)OC1)c1ccc(O)cc1 [Example 43, (−)-4-Hydroxy-N-{[(3R,6S)-6-(phenoxymethyl)tetrahydro-2H-pyran-3-yl]methyl}benzamide] | 7.6 | > 100000
O=C(NC[C@]1(O)CC[C@H](COCc2ccccc2F)CC1)c1ccc(O)c(F)c1 [Example 69, 3-Fluoro-N-[(trans-4-{[(2-fluorobenzyl)oxy]methyl}-1-hydroxycyclohexyl)methyl]-4-hydroxybenzamide] | 13.2 | > 100000
O=C(NC[C@]1(O)CC[C@H](Oc2ccc(Cl)cc2)CC1)c1ccc(O)c(F)c1 [Example 33, N-{[trans-4-(4-Chlorophenoxy)-1-hydroxycyclohexyl]methyl}-3-fluoro-4-hydroxybenzamide] | 19.3 | 95600
O=C(NC[C@@H]1CC[C@H](COc2ccc(F)cc2)CO1)c1ccc(O)cc1 [Example 76, N-({(2S,5S)-5-[(4-Fluorophenoxy)methyl]tetrahydro-2H-pyran-2-yl}methyl)-4-hydroxybenzamide] | 29.3 | 27700
O=C(NC[C@]1(O)CC[C@H](OCc2ccccc2)CC1)c1ccc(O)cc1 [Example 30, N-{[trans-4-(Benzyloxy)-1-hydroxycyclohexyl]methyl}-4-hydroxybenzamide] | 23.6 | > 100000
O=C(NC[C@H]1CC[C@@H](COc2ccc(F)cc2)CO1)c1ccc(O)cc1 [Example 75, N-({(2R,5R)-5-[(4-Fluorophenoxy)methyl]tetrahydro-2H-pyran-2-yl}methyl)-4-hydroxybenzamide] | 6.2 | 26800
O=C(NC[C@H]1CC[C@@H](COCc2ccccc2)CO1)c1ccc(O)cc1 [Example 39, 4-Hydroxy-N-{[5S-(benzyloxymethyl)tetrahydro-2H-pyran-2S-yl]methyl}benzamide] | 8.2 | > 100000
O=C(NC[C@@H]1CC[C@H](COCc2ccccc2)CO1)c1ccc(O)cc1 [Example 40, 4-Hydroxy-N-{[5R-(benzyloxymethyl)tetrahydro-2H-pyran-2R-yl]methyl}benzamide] | 10.4 | > 100000
O=C(NC[C@H]1CC[C@@H](OCCOc2ccccc2)CC1)c1ccc(O)cc1 [Example 78] | 5.4 | 40800
O=C(NC[C@]1(O)CC[C@H](Cc2ccc(F)cc2)CC1)c1ccc(O)c(F)c1 [Example 80, 3-Fluoro-N-{[trans-4-(4-fluorobenzyl)-1-hydroxycyclohexyl]methyl}-4-hydroxybenzamide] | 8.9 | > 100000
O=C(NC[C@H]1CC[C@@H](COc2ccc(F)cc2)OC1)c1ccc(O)cc1 [Example 74, N-({(3R,6S)-6-[(4-Fluorophenoxy)methyl]tetrahydro-2H-pyran-3-yl}methyl)-4-hydroxybenzamide] | 7.2 | 54700
O=C(NC[C@H]1CC[C@@H](COc2ccccc2)CO1)c1ccc(O)cc1 [Example 35, (+)-4-Hydroxy-N-{[5S-(phenoxymethyl)tetrahydro-2H-pyran-2S-yl]methyl}benzamide] | 20.9 | 51600

Now from value to compound, other results behind:

IC50 (NR2B receptor) [nM] | SMILES | IC50 (Human HERG) [nM]
17.8 | O=C(NC[C@H]1CC[C@@H](COc2ccccc2)CC1)c1cc(F)c(O)c(F)c1 [Example 108, 3,5-Difluoro-4-hydroxy-N-{[cis-4-(phenoxymethyl)cyclohexyl]methyl}benzamide] | > 100000
5.2 | O=C(NC[C@H]1CC[C@@H](OCCOc2ccc(F)cc2)CC1)c1cn[nH]c1 [Example 90, N-({cis-4-[2-(4-Fluorophenoxy)ethoxy]cyclohexyl}methyl)-1H-pyrazole-4-carboxamide] | > 100000
6.5 | O=C(NC[C@H]1CC[C@@H](CCOc2ccc(F)cc2)CO1)c1cn[nH]c1 [Example 113, N-({(2R,5S)-5-[2-(4-Fluorophenoxy)ethyl]tetrahydro-2H-pyran-2-yl}methyl)-1H-pyrazole-4-carboxamide] | > 100000
13 | O=C(NC[C@H]1CC[C@@H](CCOc2ccccc2)CC1)c1cc(F)c(O)c(F)c1 [Example 91, 3,5-Difluoro-4-hydroxy-N-{[cis-4-(2-phenoxyethyl)cyclohexyl]methyl}benzamide] | > 30000
7.1 | Cc1ccc(OC[C@@H]2CC[C@H](CNC(=O)c3cn[nH]c3)OC2)cc1 [Example 123, N-({(2R,5R)-5-[(4-Methylphenoxy)methyl]tetrahydro-2H-pyran-2-yl}methyl)-1H-pyrazole-4-carboxamide] | > 100000
10.3 | O=C(NC[C@H]1CC[C@@H](COc2ccc(Cl)c(F)c2)CO1)c1cn[nH]c1 [Example 129, N-({(2R,5R)-5-[(4-Chloro-3-fluorophenoxy)methyl]tetrahydro-2H-pyran-2-yl}methyl)-1H-pyrazole-4-carboxamide] | > 30000
12.2 | O=C(NC[C@H]1CC[C@@H](COc2ccc(Cl)cc2)CO1)c1cn[nH]c1 [Example 120, N-({(2R,5R)-5-[(4-Chlorophenoxy)methyl]tetrahydro-2H-pyran-2-yl}methyl)-1H-pyrazole-4-carboxamide] | > 30000
4 | O=C(NC[C@H]1CC[C@@H](OCCOc2ccc(F)cc2)CC1)c1ccc(O)nc1 [Example 95] | > 100000
18.1 | O=C(NC[C@H]1CC[C@@H](COc2ccc(Cl)cc2)CO1)c1cc(F)c(O)c(F)c1 [Example 126, N-({(2R,5R)-5-[(4-Chlorophenoxy)methyl]tetrahydro-2H-pyran-2-yl}methyl)-3,5-difluoro-4-hydroxybenzamide] | > 100000
7.8 | O=C(NC[C@@H]1CC[C@H](CCOc2ccc(F)cc2)CO1)c1cn[nH]c1 [Example 114, N-({(2S,5R)-5-[2-(4-fluorophenoxy)ethyl]tetrahydro-2H-pyran-2-yl}methyl)-1H-pyrazole-4-carboxamide] | 99400
16 | O=C(NC[C@H]1CC[C@@H](COc2cccc(F)c2)CC1)c1cn[nH]c1 [Example 106, N-({cis-4-[(3-Fluorophenoxy)methyl]cyclohexyl}methyl)-1H-pyrazole-4-carboxamide] | 29100
25.9 | O=C(NC[C@@H]1CCC[C@H](OCCc2ccccc2)C1)c1cn[nH]c1 (single isomer, unassigned) [Example 116] | > 100000
12.5 | Nc1n[nH]cc1C(=O)NC[C@H]1CC[C@@H](COc2ccc(Cl)cc2)CO1 [Example 125, 3-Amino-N-({(2R,5R)-5-[(4-chlorophenoxy)methyl]tetrahydro-2H-pyran-2-yl}methyl)-1H-pyrazole-4-carboxamide] | > 30000
27.2 | O=C(NC[C@H]1CC[C@@H](COc2ccccn2)CC1)c1cn[nH]c1 [Example 105, N-({cis-4-[(Pyridin-2-yloxy)methyl]cyclohexyl}methyl)-1H-pyrazole-4-carboxamide] | > 100000
